According to patent publication US5196512A (priority 1989, dated 1993):
Ends that are not written are not given here.

Columns and labels:
[1] = test system: CBA, DBA/2 and C57BL/6 mice; conditions: CBA and DBA/2 mice; n between 3 and 40; cited from earlier work
[2] = test system: Peripheral blood mononucleate cells (PBMC); type: cell-based, human
[3] = test system: T cell clones specific for TT3; type: cell-based, human
[4] = test system: T cell clones specific for TT3; type: cell-based, human; remark: listed apart in the source
[5] = test system: C57BL/6, CBA and DBA/2 mice; conditions: mouse, in vivo
lymph node cells = type: cell-based, mouse
T cell clones = type: cell-based, human

H-(Asn-Ala-Asn-Pro)n -OH (H-NANP-OH; also: repeated n times) [(NANP)n]
anti-CSP antibody response [1]: not able to induce

FNNFTVSFWLRVPKVSASHLE [TT3]
in vitro response of PBMC of different HLA-typized individuals immunized with the tetanus toxin [2]: responded in vitro | share of all the T cells specific for the tetanus toxoid (TT) [2]: ≤ 5% | proliferation of all the isolated clones in response to antigen presented by autologous APC cells [3]: proliferated | Independent restriction (class II MHC alleles able to present the peptide to at least one T cell clone) [4]: DR5 and DR9 and DR7 and DP2 and DP4 and DP? and DR5JVM/DP4 | anti-TT3 antibody count after boosting [5]: increased | anti-TT3 antibody count with IFA compared with CFA [5]: same values | proliferative T cell response of lymph node cells (lymph node cells): good proliferative T cell response

tetanus toxoid [reference compound]
proliferation of all the isolated clones in response to antigen presented by autologous APC cells [3]: proliferated

FNNFTVSFWLRVPK [TT200]
recognition of the epitope by restricted T cell clones (T cell clones): recognised by all other DR and DP allele restricted clones
